From the supplement of paper PMC10307832

Columns and labels:
Assay in all cases: relative viability (nuclei count vs DMSO), 5 days (fraction); higher = more cells survive
[1] = compound: CC(C)C[C@@H](C(=O)N[C@H](C(=O)OC1CCCC1)c1ccccc1)[C@H](O)C(=O)NO [Tosedostat] + Cc1cc(Nc2cc(N3CCN(C)CC3)nc(Sc3ccc(NC(=O)C4CC4)cc3)n2)n[nH]1 [Tozasertib] (partner 0.1 µM)
In short: (§1)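 Medians of duplicate plates are given as relative viability. That measure is the nuclei count in treated wells divided by the count in vehicle wells. Counts were taken on 4× images of lung cancer cell lines in 1536-well plates, 5 days after pin-tool dosing the day after seeding with one drug alone or a fixed anchor-drug dose plus five library-drug doses (not always all listed) in √10 steps.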

[2] = compound: CC1=NN=C(O1)C2=NN=C(C=C2)N3CCC(CC3)OC4=C(C=CC(=C4)F)Cl + CS(=O)(=O)CCNCc1ccc(-c2ccc3ncnc(Nc4ccc(OCc5cccc(F)c5)c(Cl)c4)c3c2)o1 [Lapatinib] (partner 2 µM)
In short: as §1

[3] = compound: CC1=NN=C(O1)C2=NN=C(C=C2)N3CCC(CC3)OC4=C(C=CC(=C4)F)Cl + CC(C)C[C@H](NC(=O)[C@H](Cc1ccccc1)NC(=O)c1cnccn1)B(O)O [Bortezomib] (partner 0.002 µM)
In short: as §1

[4] = compound: CC(C)C[C@@H](C(=O)N[C@H](C(=O)OC1CCCC1)c1ccccc1)[C@H](O)C(=O)NO [Tosedostat] + N=C(N)NC(=N)NCCc1ccccc1 [Phenformin] (partner 250 µM)
In short: as §1

Cell Line	relative viability ([1]; first compound 0.02 µM)	relative viability ([1]; first compound 0.06325 µM)	relative viability ([1]; first compound 0.2 µM)	relative viability ([1]; first compound 0.6325 µM)	relative viability ([1]; first compound 2 µM)	relative viability ([2]; first compound 0.253 µM)	relative viability ([2]; first compound 0.8 µM)	relative viability ([2]; first compound 2.53 µM)	relative viability ([2]; first compound 8 µM)	relative viability ([3]; first compound 0.253 µM)	relative viability ([3]; first compound 0.8 µM)	relative viability ([3]; first compound 2.53 µM)	relative viability ([3]; first compound 8 µM)	relative viability ([4]; first compound 0.02 µM)	relative viability ([4]; first compound 0.06325 µM)	relative viability ([4]; first compound 0.2 µM)	relative viability ([4]; first compound 0.6325 µM)	relative viability ([4]; first compound 2 µM)
HCC-366	0.113	0.113	0.0994	0.0993	0.0727	0.384	0.41	0.393	0.406	0.394	0.438	0.436	0.395	0.573	0.623	0.638	0.532	0.6
HCC-827	0.416	0.412	0.445	0.357	0.426	0.201	0.197	0.176	0.2	0.514	0.381	0.524	0.523	0.401	0.443	0.397	0.355	0.301
HOP-62	0.393	0.31	0.329	0.323	0.152	0.799	–	0.523	0.684	0.577	–	0.764	0.419	0.663	0.615	0.685	0.569	0.437
LC-2-ad	0.472	0.454	0.403	0.297	0.281	0.291	0.271	0.335	0.262	0.323	0.259	0.328	0.274	0.692	0.555	0.56	0.438	0.508
LCLC-97TM1	0.216	0.203	0.184	0.165	0.172	0.827	–	0.553	0.687	0.373	0.211	0.392	0.362	0.402	0.433	0.445	0.403	0.439
LOU-NH91	0.686	0.699	0.665	0.574	0.917	–	0.7	0.717	0.687	–	0.517	0.479	0.436	0.823	0.742	0.691	0.677	0.481
LU99A	0.253	0.284	0.277	0.242	0.225	1.02	0.952	0.978	0.816	1.01	1	1.06	0.953	0.925	0.903	0.821	0.641	0.547
LXF-289	0.198	0.167	0.169	0.122	0.0708	0.643	0.672	0.696	0.584	0.682	0.674	0.753	0.619	0.495	0.493	0.479	0.495	0.399
NCI-H23	0.491	0.347	0.41	0.26	0.294	1.03	–	0.955	0.876	0.948	–	0.894	0.838	0.782	0.802	0.754	0.707	0.404
NCI-H322M	0.461	0.468	0.434	0.419	0.341	0.467	0.581	0.592	0.551	1.05	1.05	1.21	1.11	0.756	0.705	0.72	0.704	0.708
NCI-H460	0.313	0.502	0.687	0.325	0.264	0.313	0.326	0.283	0.276	0.382	0.358	0.342	0.315	0.551	0.473	0.505	0.426	0.48
NCI-H520	0.448	0.478	0.438	0.399	0.542	0.888	0.84	0.82	0.764	0.378	0.5	0.518	0.542	0.391	0.593	0.585	0.712	0.782
NCI-H596	0.893	0.875	0.791	0.934	0.729	–	0.845	0.932	0.888	–	0.85	1.01	0.713	0.734	0.762	0.761	0.72	0.599
NCI-H647	0.37	0.262	0.339	0.175	0.367	0.673	0.667	0.824	0.58	0.539	0.742	0.786	0.606	0.56	0.506	0.45	0.434	0.39
NCI-H650	0.839	0.78	0.684	0.602	0.471	0.999	0.833	0.839	0.851	0.787	0.546	0.716	0.555	0.497	0.478	0.435	0.442	0.405
NCI-H661	0.354	0.353	0.374	0.395	0.342	0.541	0.477	0.542	0.417	0.695	0.539	0.801	0.669	0.259	0.259	0.312	0.304	0.265
NCI-H727	0.586	0.535	–	0.45	0.415	0.815	0.721	1.01	0.795	0.528	0.702	1	0.696	0.705	0.485	–	0.442	0.397
NCI-H838	0.273	0.262	0.305	0.283	0.255	0.86	0.645	0.842	0.78	0.697	0.592	0.553	0.645	0.489	0.56	0.519	0.659	0.711

Cell Line	relative viability ([1]; first compound 0.02 µM)	relative viability ([1]; first compound 0.06325 µM)	relative viability ([1]; first compound 0.2 µM)	relative viability ([1]; first compound 0.6325 µM)	relative viability ([1]; first compound 2 µM)	relative viability ([2]; first compound 0.253 µM)	relative viability ([2]; first compound 0.8 µM)	relative viability ([2]; first compound 2.53 µM)	relative viability ([2]; first compound 8 µM)	relative viability ([3]; first compound 0.253 µM)	relative viability ([3]; first compound 0.8 µM)	relative viability ([3]; first compound 2.53 µM)	relative viability ([3]; first compound 8 µM)	relative viability ([4]; first compound 0.02 µM)	relative viability ([4]; first compound 0.06325 µM)	relative viability ([4]; first compound 0.2 µM)	relative viability ([4]; first compound 0.6325 µM)	relative viability ([4]; first compound 2 µM)
NCI-H1355	0.63	0.55	0.584	0.533	0.442	–	–	0.869	0.78	–	–	1.1	0.945	0.43	0.445	0.457	0.38	0.377
NCI-H1437	0.403	0.395	0.389	0.337	0.166	0.434	0.486	0.545	0.453	0.31	0.342	0.424	0.342	0.28	0.28	0.295	0.332	0.299
NCI-H1650	0.333	0.503	0.339	0.238	0.242	–	0.71	0.691	0.566	–	0.202	0.17	0.197	0.484	0.501	0.399	0.399	0.281
NCI-H1651	0.726	0.645	0.637	0.678	0.554	0.695	0.784	0.691	0.708	0.782	0.708	0.649	0.686	0.324	0.328	0.293	0.267	0.306
NCI-H1666	0.639	0.711	0.541	0.726	0.623	0.303	0.554	0.608	0.428	0.419	0.851	0.756	0.57	0.547	0.527	0.554	0.612	0.567
NCI-H1734	0.24	0.242	0.278	0.229	0.208	0.954	0.683	0.908	0.882	0.65	0.592	0.824	0.805	0.453	0.399	0.393	0.372	0.345
NCI-H1755	0.665	0.578	0.477	0.386	0.319	0.59	0.708	0.665	0.592	0.493	0.625	0.73	0.628	0.599	0.574	0.571	0.602	0.406
NCI-H1915	0.473	0.432	0.492	0.352	0.289	0.431	0.334	0.401	0.322	0.4	0.31	0.456	0.323	0.374	0.366	0.365	0.35	0.358
NCI-H1975	0.955	0.749	0.916	0.575	0.471	–	0.746	0.859	0.753	–	0.367	0.299	0.306	0.4	0.401	0.412	0.342	0.375
NCI-H1993	0.631	0.535	0.56	0.588	0.493	0.778	0.801	0.737	0.695	0.922	0.901	0.925	0.966	0.514	0.507	0.459	0.497	0.499
NCI-H2009	0.821	0.765	0.697	0.647	0.607	0.453	0.421	0.427	0.464	0.555	0.426	0.523	0.493	0.562	0.477	0.477	0.468	0.419
NCI-H2023	0.378	0.319	0.35	0.291	0.169	0.441	0.407	0.409	0.435	0.49	0.415	0.505	0.386	0.397	0.38	0.382	0.351	0.359
NCI-H2085	0.695	0.695	0.784	0.909	0.838	0.644	0.627	0.752	0.612	0.745	0.813	1.03	0.761	0.55	0.646	0.713	0.673	0.682
NCI-H2087	0.301	0.284	0.277	0.108	0.081	0.618	0.56	0.554	0.51	0.45	0.437	0.489	0.512	0.473	0.413	0.329	0.28	0.22
NCI-H2126	0.829	0.853	0.852	0.789	0.618	0.552	0.759	0.702	0.699	0.965	0.907	0.842	0.837	0.492	0.535	0.477	0.489	0.462
NCI-H2228	0.375	0.286	0.216	0.101	0.0875	1.03	1.01	1.13	0.848	0.725	0.804	1.27	0.772	0.334	0.266	0.291	0.244	0.175
NCI-H2347	0.519	0.509	0.504	0.435	0.41	0.557	0.631	0.593	0.535	0.611	0.8	0.898	0.799	0.384	0.439	0.55	0.267	0.275
NCI-H2405	0.764	0.737	0.76	0.667	0.612	0.756	0.809	0.859	0.754	0.468	0.415	0.47	0.453	0.398	0.407	0.397	0.368	0.359
